Data from ChEMBL document CHEMBL5729160, “Lysophosphatidic acid receptor 1 (LPAR1) inhibitor compounds” (2022).

Assays:
[1] = target: Lysophosphatidic acid receptor 1 (Homo sapiens, UniProt Q92633); assay: LPAR1 Calcium Flux Assays: A cDNA encoding the human LPAR1 receptor is synthesized and cloned into pDNA3 expression plasmid. The plasmid is transfected in U937 cells using Lipofectamine 2000 (Invitrogen Corp., USA). Clones stably expressing human LPAR1 are selected using […] and identified as cells that show Ca-influx in response to LPA.U937 cells overexpressing human LPAR1 are seeded at 100,000 cells per well in a 96-well fibronectin (10 ug/ml) coated plate in 60 μl of assay buffer (HBSS containing 20 mM HEPES and 0.2% BSA) and then incubated for 60 minutes. Then 50 μl of a calcium indicator dye (Fluo-4 NW, Molecular Probes) are added to each well and incubation continued for 30 minutes at 37° C. and then 30 minutes at room temperature. 50 μl of test compounds in 4% DMSO are added to the cells and incubation continued at room temperature for 40 minutes. Cells are the stimulated by the addition of 50 μl of 128 nM LPA and intracellular calcium is measured using the FLIPR TETRA (Molecular Devices). IC50 values are determined using “Genedata Screener” analysis tool.; type: cell-based
Chain of Lysophosphatidic acid receptor 1 (Q92633 whole entry): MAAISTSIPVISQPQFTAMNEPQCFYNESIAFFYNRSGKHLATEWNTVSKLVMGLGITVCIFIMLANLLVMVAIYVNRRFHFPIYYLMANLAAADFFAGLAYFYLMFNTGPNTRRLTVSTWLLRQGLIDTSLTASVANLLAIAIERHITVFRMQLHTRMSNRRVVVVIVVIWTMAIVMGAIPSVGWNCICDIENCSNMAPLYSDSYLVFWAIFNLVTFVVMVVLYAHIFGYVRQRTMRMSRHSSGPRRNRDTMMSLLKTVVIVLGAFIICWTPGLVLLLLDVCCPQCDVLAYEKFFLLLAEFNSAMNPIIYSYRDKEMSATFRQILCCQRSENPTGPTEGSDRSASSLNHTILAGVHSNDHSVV

[2] = target: T1, Lysophosphatidic acid receptor 3 (Homo sapiens, UniProt Q9UBY5); assay: LPAR3 Calcium Flux Assays: A cDNA encoding the human LPAR3 receptor is synthesized and cloned into pDNA3 expression plasmid. The plasmid is transfected in U2OS cells using Lipofectamine 2000 (Invitrogen Corp., USA). Clones stably expressing human LPAR3 are selected using neomycin and identified as cells that show Ca-influx in response to LPA.U2OS cells overexpressing human LPAR3 are seeded at 20,000-40,000 cells per well in a 96-well poly-D-lysine coated plate one day before the assay. Prior to the assay, the cells are washed once with assay buffer (HBSS containing 20 mM HEPES and 0.2% BSA) and then incubated in 50 μl of assay buffer for 60 minutes. Then 50 μl of a calcium indicator dye (Fluo-4 NW, Molecular Probes) are added to each well and incubation is continued for 30 minutes at 37° C. and then 30 minutes at room temperature. 50 μl of test compounds in 4% DMSO are added to the cells and incubation continued at room temperature for 40 minutes. Cells are stimulated by the addition of 50 μl of 128 nM LPA and intracellular calcium is measured using the FLIPR TETRA (Molecular Devices). IC50 values are determined using “Genedata Screener” analysis tool.; type: cell-based
T1 sequence (Q9UBY5 whole entry): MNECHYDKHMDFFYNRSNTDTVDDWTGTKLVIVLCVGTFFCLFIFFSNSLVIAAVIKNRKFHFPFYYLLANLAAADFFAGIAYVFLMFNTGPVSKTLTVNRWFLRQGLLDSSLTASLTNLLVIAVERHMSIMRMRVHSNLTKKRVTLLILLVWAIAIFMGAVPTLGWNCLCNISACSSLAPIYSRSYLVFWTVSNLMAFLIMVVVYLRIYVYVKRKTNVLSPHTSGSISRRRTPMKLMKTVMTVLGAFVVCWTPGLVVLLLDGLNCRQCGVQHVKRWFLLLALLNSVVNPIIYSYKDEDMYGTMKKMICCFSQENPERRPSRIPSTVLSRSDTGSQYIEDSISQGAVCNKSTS

Structure (SMILES): Cn1ncc(-c2ccc(-c3ccc(C4(C(=O)O)CC4)c(C(F)(F)F)c3)cn2)c1Nc1cncc(OC2CC2)n1
- IC50 [1]: 22 nM
- IC50 [2]: > 10000 nM
